Columns and labels:
[1] = molecular target: T1, KAT6A (Homo sapiens, UniProt Q92794); assay: Enzymatic activity assay for KAT6A acetyltransferase (TR-FRET, acetylation of histone substrate H3); assay type: biochemical
T1 construct: purchased active motife (Active Motif) 81223
In short: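 TR-FRET detection of biotinylated H3 acetylation by KAT6A with acetyl-CoA; compounds in 10-point 3-fold dilution (0.5% DMSO final) preincubated with enzyme 10 min at 25 °C, then 90 min reaction and 60 min Eu-antibody/ULight-SA detection at 25 °C. HTRF 665/615 ratio normalised to DMSO (0%) and top-dose control (100%); IC50 by nonlinear fit.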

[2] = Assay for plasma protein binding rate (equilibrium dialysis), human plasma; assay type: in vitro ADME; settings: dialysis 6 h at 37 °C, read-out: Human (Fu%)
Experimental: (§1) 1.1 Preparation of compounds: The compounds prepared in the examples were each dissolved in dimethylsulfoxide to give solutions at a concentration of 10 mmol/L. • 1) The example compounds were each diluted from 10 mmol/L stock solution to 0.2 mmol/L, i.e., 1 µL of the compound was added to 49 µL of DMSO; • 2) 3 µL of 0.2 mmol/L test compounds were added to 597 µL of blood plasma, and the mixtures were vortexed at 1000 rpm for 2 min; • 3) 50 µL of the plasma containing the drug in 2) was taken, 50 µL of PBS was added, and 300 µL of methanol internal standard* was added to serve as a sample T0; • 4) 120 µL of the plasma containing the drug in 2) was taken and added to one side of an HTD device membrane, and 120 µL of PBS was added to the other side of the membrane; a breathable film was covered, and the plasma and the residual sample in 2) were balanced at 37 °C (100 rpm and 5% CO2) for 6 h; • 5) 50 µL of the dialyzed plasma side sample was taken, 50 µL of PBS was added, and 300 µL of methanol internal standard* was added to serve as a sample P; • 6) 50 µL of the dialyzed PBS side sample was taken, 50 µL of blank plasma was added, and 300 µL of methanol internal standard* was added to serve as a sample B; • 7) 50 µL of the plasma containing the drug in 2) was taken, 50 µL of PBS was added, and 300 µL of methanol internal standard* was added to serve as a sample T6; • 8) All samples were vortexed, mixed homogeneously, and then centrifuged at 3220 g for 40 min at 4 °C; • 9) 100 µL of the supernatant and 100 µL of purified water were mixed homogenously for liquid chromatography-mass spectrometry.
(§2) An internal standard method was used, and the plasma protein binding rate, recovery rate, and residual percentage were calculated by using Excel according to the ratio of the peak area of the sample to the peak area of the internal standard. Free rate(%) = (RatioB)/(RatioP) × 100% [formula] Binding rate(%) = 100%−Free rate% [formula] Recovery rate(%) = (RatioB + RatioP)/(RatioT0) × 100% [formula] Remaining percentage(%) = (RatioT6)/(RatioT0) × 100% [formula]
(§3) RatioB: a ratio of the peak area of the test substance on the PBS side to the peak area of the internal standard; RatioP: a ratio of the peak area of the test substance on the plasma side to the peak area of the internal standard; RatioT6: a ratio of the peak area of the sample after incubation with the test substance for 6 h to the peak area of the internal standard; RatioT0: a ratio of the peak area of the sample after incubation with the test substance for 0 h to the peak area of the internal standard. Table 8. Plasma protein binding rate (Fu%) data for various species of example compounds

[3] = Assay for plasma protein binding rate (equilibrium dialysis), mouse plasma; assay type: in vitro ADME; settings: dialysis 6 h at 37 °C, read-out: Mouse (Fu%)
Experimental: as §1, §2, §3

[4] = Assay for plasma protein binding rate (equilibrium dialysis), dog plasma; assay type: in vitro ADME; settings: dialysis 6 h at 37 °C, read-out: Dog (Fu%)
Experimental: as §1, §2, §3

[5] = In-vivo pharmacokinetic study in rats; parameters: species or system SD female rats; settings: female, SD, rat, plasma, po, intragastric administration, 5 mg/kg; for AUC(0-t): read-out: AUC0-24h
Experimental: 1.1 Instrument: high-performance liquid chromatograph: SHIMADZU LC-30AD; mass spectrum: AB SCIEX mass spectrometer Triple Quad 5500; all measured data were calculated and processed using Microsoft Excel, and relevant pharmacokinetic parameters were calculated using WinNonlin software. The main obtained kinetic parameters are Tmax, T1/2, Cmax, AUC0-24 h, and AUCinf. […] Sample injection amount: 1 µL.
1.2 Animals: three SD female rats were used. The body weight range was 180-300 g. After purchase, the rats were bred in the experimental animal center for two days for later use. The rats were fasted 12 h before administration and 4 h after administration, and given ad libitum access to water during the assay. Blood samples were taken at predetermined time points after intragastric administration.
1.3 Vehicle: 0.5% HPMC (hydroxypropyl methylcellulose) + 0.4% Tween80 + 99.1% water. Preparation of intragastric administration solution: The compound was precisely weighed, the vehicle was added, and then the drug was completely dissolved by ultrasonication at room temperature for 5 min and prepared into a 0.5 mg/mL solution. After the intragastric administration, blood samples were taken at 0.083 h, 0.25 h, 0.5 h, 1.0 h, 2.0 h, 4.0 h, 7.0 h, and 24 h. The blood collection mode is as follows: 0.2 mL of the jugular vein blood was collected, EDTA-K2 was used as an anticoagulation agent, the collected blood sample was transferred into a microcentrifuge tube containing the anticoagulation agent, and the tube was centrifuged at 4 °C and 4000 g for 5 min to separate the plasma. All plasma samples collected were stored at -75±15 °C until analysis.
The compound was precisely weighed and prepared into a standard curve working solution and a quality control working solution at different concentrations. The blank plasma was added and prepared into a plasma standard curve and a quality control sample. LC/MS/MS analysis was performed after pretreatment using a protein precipitation method, and then the concentration of the compounds described above in the plasma was measured. All measured data were collected and processed by the relevant software, and pharmacokinetic parameters were calculated using Winnonlin software. Table 9. Pharmacokinetic parameters of some compounds in the examples in rats

[6] = Assay for plasma protein binding rate (equilibrium dialysis), rat plasma; assay type: in vitro ADME; settings: dialysis 6 h at 37 °C, read-out: Rat (Fu%)
Experimental: as §1, §2, §3

T1 sequence (Q92794 whole entry): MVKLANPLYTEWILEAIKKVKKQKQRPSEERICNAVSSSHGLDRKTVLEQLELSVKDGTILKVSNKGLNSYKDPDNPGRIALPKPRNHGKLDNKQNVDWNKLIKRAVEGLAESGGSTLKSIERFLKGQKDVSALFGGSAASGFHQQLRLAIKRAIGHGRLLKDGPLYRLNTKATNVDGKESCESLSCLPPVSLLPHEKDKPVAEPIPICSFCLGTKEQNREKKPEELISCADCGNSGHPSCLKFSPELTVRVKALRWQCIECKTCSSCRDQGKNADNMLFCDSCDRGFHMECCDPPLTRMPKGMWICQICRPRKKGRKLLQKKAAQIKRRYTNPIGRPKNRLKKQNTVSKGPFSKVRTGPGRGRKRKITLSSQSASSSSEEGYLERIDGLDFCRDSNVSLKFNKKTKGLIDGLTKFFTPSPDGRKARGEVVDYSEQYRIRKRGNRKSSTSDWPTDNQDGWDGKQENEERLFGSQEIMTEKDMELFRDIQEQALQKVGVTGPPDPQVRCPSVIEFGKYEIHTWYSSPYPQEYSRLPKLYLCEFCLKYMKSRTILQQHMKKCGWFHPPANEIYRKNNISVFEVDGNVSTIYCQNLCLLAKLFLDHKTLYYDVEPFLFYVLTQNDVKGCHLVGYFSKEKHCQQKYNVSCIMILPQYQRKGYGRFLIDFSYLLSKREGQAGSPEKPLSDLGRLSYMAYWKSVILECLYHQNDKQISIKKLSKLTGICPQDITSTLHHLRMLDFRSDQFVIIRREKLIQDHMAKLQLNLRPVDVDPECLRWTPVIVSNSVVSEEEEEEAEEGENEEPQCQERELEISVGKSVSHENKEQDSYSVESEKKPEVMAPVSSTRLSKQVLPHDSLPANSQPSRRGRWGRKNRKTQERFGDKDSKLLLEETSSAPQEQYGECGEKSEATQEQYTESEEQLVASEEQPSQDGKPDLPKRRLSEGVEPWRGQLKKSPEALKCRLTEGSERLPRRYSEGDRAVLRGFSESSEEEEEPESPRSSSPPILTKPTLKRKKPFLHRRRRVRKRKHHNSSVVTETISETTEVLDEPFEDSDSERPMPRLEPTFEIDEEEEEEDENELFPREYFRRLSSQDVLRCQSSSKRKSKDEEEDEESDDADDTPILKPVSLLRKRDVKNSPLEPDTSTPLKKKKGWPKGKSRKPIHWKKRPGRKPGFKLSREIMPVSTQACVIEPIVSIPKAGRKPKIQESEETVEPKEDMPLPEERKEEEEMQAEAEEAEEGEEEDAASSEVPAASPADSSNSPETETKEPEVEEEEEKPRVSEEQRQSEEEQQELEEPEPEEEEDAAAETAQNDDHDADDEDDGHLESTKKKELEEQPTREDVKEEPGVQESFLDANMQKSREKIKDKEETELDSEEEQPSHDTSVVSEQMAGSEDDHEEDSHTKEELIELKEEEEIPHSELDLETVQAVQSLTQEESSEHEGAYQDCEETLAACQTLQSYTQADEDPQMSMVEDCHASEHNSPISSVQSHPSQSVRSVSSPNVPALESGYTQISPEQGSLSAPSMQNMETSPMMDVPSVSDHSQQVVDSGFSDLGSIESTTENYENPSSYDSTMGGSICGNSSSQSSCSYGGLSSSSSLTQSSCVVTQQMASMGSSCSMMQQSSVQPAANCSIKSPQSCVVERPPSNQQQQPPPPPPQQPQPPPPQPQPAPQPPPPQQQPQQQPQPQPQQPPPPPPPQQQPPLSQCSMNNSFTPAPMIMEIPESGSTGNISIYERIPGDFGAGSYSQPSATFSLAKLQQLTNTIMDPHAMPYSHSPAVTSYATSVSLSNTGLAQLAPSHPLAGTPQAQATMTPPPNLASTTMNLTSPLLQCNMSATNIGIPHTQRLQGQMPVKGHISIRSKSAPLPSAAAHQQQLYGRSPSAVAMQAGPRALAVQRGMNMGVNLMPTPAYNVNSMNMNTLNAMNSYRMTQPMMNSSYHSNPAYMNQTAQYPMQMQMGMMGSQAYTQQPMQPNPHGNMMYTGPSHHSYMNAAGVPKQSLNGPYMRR

Compound	IC50 [1]	fraction unbound at 6 h, 1 µM [2]	fraction unbound at 6 h, 1 µM [3]	fraction unbound at 6 h, 1 µM [4]	AUC(0-inf) [5]	Cmax [5]	Tmax [5]	AUC(0-t) [5]	fraction unbound at 6 h, 1 µM [6]
COc1nc(Cn2cccn2)cc2onc(NS(=O)(=O)c3cccc4c3OCO4)c12 [Example 28, N-(6-((1H-Pyrazol-1-yl)methyl)-4-methoxyisoxazolo[4,5-c]pyridin-3-yl)-1,3-benzodioxole-4-sulfonamide]	3.55 nM	0.0086	0.0205						
COc1cc2c(cc1S(=O)(=O)Nc1noc3cc(Cn4cccn4)nc(OC)c13)CCO2 [Example 60, N-(6-((1H-Pyrazol-1-yl)methyl)-4-methoxyisoxazolo[4,5-c]pyridin-3-yl)-6-methoxy-2,3-dihvdrobenzofuran-5-sulfonamide]	1.01 nM	0.0175	0.0358	0.0345	26700 ng·h/mL	2310 ng/mL	2.67 h	26200 ng·h/mL	0.0516
COc1ccc2occc2c1S(=O)(=O)Nc1noc2cc(Cn3cccn3)nc(OC)c12 [Example 45, N-(6-((1H-Pyrazol-1-yl)methyl)-4-methoxyisoxazolo[4,5-c]pyridin-3-yl)-5-methoxybenzofuran-4-sulfonamide]	9.45 nM	0.0066	0.0145						
COc1cc2c(cc1S(=O)(=O)Nc1noc3cc(Cn4cccn4)nc(OC)c13)OCO2 [Example 57, N-(6-((1H-Pyrazol-1-yl)methyl)-4-methoxyisoxazolo[4,5-c]pyridin-3-yl)-6-methoxy-1,3-benzodioxole-5-sulfonamide]	0.95 nM	0.0264	0.0565						
COc1cc2ccoc2cc1S(=O)(=O)Nc1noc2cc(Cn3cccn3)nc(OC)c12 [Example 44, N-(6-((1H-Pyrazol-1-yl)methyl)-4-methoxyisoxazolo[4,5-c]pyridin-3-yl)-5-methoxybenzofuran-6-sulfonamide]	8.28 nM	0.0149	0.048	0.0023					0.0176
COc1cc2cccnc2cc1S(=O)(=O)Nc1noc2cc(Cn3cccn3)nc(OC)c12 [Example 75, N-(6-((1H-Pyrazol-1-yl)methyl)-4-methoxyisoxazolo[4,5-c]pyridin-3-yl)-6-methoxyquinoline-7-sulfonamide]	2.41 nM	0.0091	0.0163		30600 ng·h/mL	10800 ng/mL	0.25 h	30600 ng·h/mL	

Reference: patent publication EP4692094A1 (Beijing Konruns Pharmaceutical Co., Ltd., priority 2023, dated 2024)
